Laboratory results reported in ChEMBL document CHEMBL5360534, “Synthetic α-glucosidase inhibitors as promising anti-diabetic agents: Recent developments and future challenges” (Eur J Med Chem, 2023).
Each block holds one compound with its values, some of them ahead of it.

Experiments:
[1] = (§1) Mixed-type inhibition of alpha-glucosidase (unknown origin) using p-nitropheny-alpha-D-glucopyranoside as substrate assessed as inhibition constant by measuring intercept versus drug/substrate concentration preincubated for 5 mins followed by substrate addition and measured after 10 mins by absorbance based microplate reader analysis; parameters: species or system Homo sapiens
[2] = Inhibition of alpha-glucosidase (unknown origin) using p-nitrophenyl-alpha-D-glucopyranoside as substrate preincubated for 5 mins followed by substrate addition and measured after 10 mins by absorbance based microplate reader analysis; parameters: species or system Homo sapiens
[3] = as §1, with “secondary plot of 1/V” for “intercept”, “drug” for “drug/substrate”; parameters: species or system Homo sapiens
[4] = molecular target: T1, Alpha-glucosidase (Saccharomyces cerevisiae S288c) (UniProt P53341+P38158+P07265); assay: (§2) Potency index, ratio of acarbose IC50 to test compound IC50 for inhibition of Saccharomyces cerevisiae alpha-glucosidase using p-nitrophenyl-alpha-D-glucopyranoside as substrate preincubated for 5 mins followed by substrate addition and measured after 5 mins by absorbance based analysis; format: protein assay; conditions: time 10.0 min
[5] = molecular target: T2, Alpha-glucosidase (Saccharomyces cerevisiae S288c, UniProt P53341+P38158+P07265); assay: Inhibition of Saccharomyces cerevisiae alpha-glucosidase using p-nitrophenyl-alpha-D-glucopyranoside as substrate preincubated for 5 mins followed by substrate addition and measured after 5 mins by absorbance based analysis; format: protein assay
[6] = molecular target: T2, Alpha-glucosidase; assay: Inhibition of Saccharomyces cerevisiae alpha-glucosidase using p-nitrophenyl glucopyranoside as substrate preincubated for 10 mins followed by substrate addition and measured after 20 mins by spectrophotometric analysis; format: protein assay
[7] = molecular target: T2, Alpha-glucosidase; assay: Competitive inhibition of Saccharomyces cerevisiae alpha-glucosidase using p-nitrophenyl glucopyranoside as substrate assessed as inhibition constant preincubated for 15 mins followed by substrate addition and measured after 20 mins by spectrophotometric analysis; format: protein assay
[8] = Inhibition of Saccharomyces cerevisiae alpha-glucosidase type I using p-nitrophenyl-alpha-D-glucopyranoside as substrate preincubated for 10 mins followed by substrate addition and measured after 30 mins by absorbance based analysis
[9] = system: Saccharomyces cerevisiae; assay: Potency index, ratio of acarbose IC50 to test compound IC50 for inhibition of Saccharomyces cerevisiae alpha-glucosidase type I using p-nitrophenyl-alpha-D-glucopyranoside as substrate preincubated for 10 mins followed by substrate addition and measured after 30 mins by absorbance based analysis; conditions: time 40.0 min
[10] = molecular target: T2, Alpha-glucosidase; assay: Non-competitive inhibition of Saccharomyces cerevisiae alpha-glucosidase using p-nitrophenyl-alpha-D-glucopyranoside as substrate assessed as inhibition constant preincubated for 15 mins followed by substrate addition and measured after 30 mins by multiplate reader analysis; format: protein assay
[11] = molecular target: T2, Alpha-glucosidase; assay: Inhibition of Saccharomyces cerevisiae alpha-glucosidase using p-nitrophenyl-alpha-D-glucopyranoside as substrate preincubated for 15 mins followed by substrate addition and measured after 30 mins by multiplate reader analysis; format: protein assay
[12] = molecular target: T1, Alpha-glucosidase (Saccharomyces cerevisiae S288c); assay: as §2, with “cerevisiae recombinant” for “cerevisiae”, “for 15” for “for 5”, “after 30” for “after 5”, “by microplate reader” for “by absorbance”; format: protein assay; conditions: time 45.0 min
[13] = molecular target: T2, Alpha-glucosidase; assay: Inhibition of Saccharomyces cerevisiae recombinant alpha-glucosidase using p-nitrophenyl-alpha-D-glucopyranoside as substrate preincubated for 15 mins followed by substrate addition and measured after 30 mins by microplate reader based analysis; format: protein assay
[14] = Inhibition of alpha-glucosidase (unknown origin) using 4-nitrophenyl-[…]-D-glucopyranoside as substrate preincubated for 20 mins followed by substrate addition and measured after 1 hr by absorbance based analysis; parameters: species or system Homo sapiens
[15] = Inhibition of alpha-glucosidase (unknown origin) using PNP glycoside as substrate preincubated for 30 mins followed by substrate addition and measured after 1 min by spectrophotometric analysis; parameters: species or system Homo sapiens
[16] = Inhibition of alpha-glucosidase (unknown origin) using p-nitrophenyl-alpha-D-glucopyranoside as substrate preincubated for 20 mins followed by substrate addition and measured after 30 mins by UV-visible spectrophotometric analysis; parameters: species or system Homo sapiens
[17] = Inhibition of alpha-glucosidase (unknown origin) using p-NPG as substrate preincubated for 5 mins followed by substrate addition and measured after 30 mins by absorbance based analysis; parameters: species or system Homo sapiens
[18] = organism: Homo sapiens; assay: Potency index, ratio of acarbose IC50 to test compound IC50 for inhibition of alpha-glucosidase (unknown origin) using p-NPG as substrate preincubated for 5 mins followed by substrate addition and measured after 30 mins by absorbance based analysis; conditions: time 35.0 min
[19] = Inhibition of alpha-glucosidase (unknown origin) using p-nitrophenyl-alpha-D-glucopyranoside as substrate preincubated for 10 mins followed by substrate addition and measured after 20 mins by absorbance based analysis; parameters: species or system Homo sapiens
[20] = organism: Homo sapiens; assay: Potency index, ratio of acarbose IC50 to test compound IC50 for inhibition of alpha-glucosidase (unknown origin) using p-nitrophenyl-alpha-D-glucopyranoside as substrate preincubated for 10 mins followed by substrate addition and measured after 20 mins by absorbance based analysis; conditions: time 30.0 min
[21] = organism: Homo sapiens; assay: Potency index, ratio of acarbose IC50 to test compound IC50 for inhibition of alpha-glucosidase (unknown origin) using p-nitrophenyl glucopyranoside as substrate preincubated for 10 mins followed by substrate addition and measured after 30 mins by absorbance based analysis; conditions: time 40.0 min
[22] = Inhibition of alpha-glucosidase (unknown origin) using p-nitrophenyl glucopyranoside as substrate preincubated for 10 mins followed by substrate addition and measured after 30 mins by absorbance based analysis; parameters: species or system Homo sapiens
[23] = molecular target: T2, Alpha-glucosidase; assay: Non-competitive inhibition of Saccharomyces cerevisiae alpha-glucosidase using p-nitrophenyl-alpha-D-glucopyranoside as substrate assessed as inhibition constant preincubated for 10 mins followed by substrate addition and measured after 30 mins by spectrophotometric analysis; format: protein assay
[24] = molecular target: T2, Alpha-glucosidase; assay: Inhibition of Saccharomyces cerevisiae alpha-glucosidase using p-nitrophenyl-alpha-D-glucopyranoside as substrate preincubated for 10 mins followed by substrate addition and measured after 30 mins by spectrophotometric analysis; format: protein assay
[25] = molecular target: T2, Alpha-glucosidase; assay: Inhibition of Saccharomyces cerevisiae alpha-glucosidase using p-nitrophenyl-alpha-D-glucopyranoside as substrate preincubated for 5 mins followed by substrate addition and measured after 15 mins by absorbance based microplate reader analysis; format: protein assay
[26] = Inhibition of alpha-glucosidase (unknown origin); parameters: species or system Homo sapiens
[27] = Competitive inhibition of alpha-glucosidase (unknown origin) assessed as inhibition constant; parameters: species or system Homo sapiens
[28] = molecular target: T2, Alpha-glucosidase; assay: Inhibition of Saccharomyces cerevisiae alpha-glucosidase using p-nitrophenyl-alpha-D-glucopyranoside as substrate preincubated for 10 mins followed by substrate addition and measured by absorbance based analysis; format: protein assay
[29] = molecular target: T2, Alpha-glucosidase; assay: Reversible non-competitive inhibition of Saccharomyces cerevisiae alpha-glucosidase using p-nitrophenyl-alpha-D-glucopyranoside as substrate assessed as inhibition constant preincubated for 10 mins followed by substrate addition and measured by absorbance based analysis; format: protein assay
[30] = molecular target: T2, Alpha-glucosidase; assay: Inhibition of Saccharomyces cerevisiae alpha-glucosidase using pNPG as substrate; format: protein assay
[31] = molecular target: T2, Alpha-glucosidase; assay: Competitive inhibition of Saccharomyces cerevisiae alpha-glucosidase using pNPG as substrate assessed as inhibition constant; format: protein assay

Ratio IC50 [4]: 30
IC50 [5]: 1.26 µM
Structure (SMILES): O=c1cc(-c2cccc(OCc3cc(C(F)(F)F)ccc3C(F)(F)F)c2)oc2ccccc12

IC50 [6]: 80.3 µM
Ki [7]: 78 µM
Structure (SMILES): O=C(Cn1cc(CNC(=O)c2c3ccccc3nc3ccccc23)nn1)Nc1cccc(Br)c1

Ki [10]: 16.03 µM
IC50 [11]: 22.1 µM
Structure (SMILES): Oc1ccc(Br)cc1-c1nc2cc(Cl)ccc2s1

IC50 [14]: 115 µM
Structure (SMILES): Oc1ccccc1-c1cc(-c2ccc(C(F)(F)F)cc2)n(-c2ccccc2)n1

IC50 [17]: 0.15 µM
Ratio IC50 [18]: 255
Structure (SMILES): Cc1ccccc1C(=O)/N=c1\scc(C)n1-c1cc(Cl)c(Cl)cc1Cl

IC50 [19]: 7.54 µM
Ratio IC50 [20]: 30
Structure (SMILES): N#CC(c1c[nH]c2ccc(Br)cc12)c1c[nH]c2ccc(Br)cc12

Ki [23]: 6.86 µM
IC50 [24]: 6.24 µM
Structure (SMILES): O=C(N/N=C/c1cc(Cl)cc(Cl)c1O)c1nc(-c2cc3ccccc3oc2=O)cs1

IC50 [25]: 6.5 µM
Structure (SMILES): O=C(c1ccc(O)cc1)C1Cc2c(ccc3ccccc23)O1 (stereo unspecified)

IC50 [26]: 2.2 µM
Ki [27]: 5.1 µM
Structure (SMILES): Cn1cnnc1SC(=O)c1ccc(-c2ccccc2Cl)o1

IC50 [28]: 2.54 µM
Ki [29]: 1.5 µM
Structure (SMILES): C/C(=N\OC(=O)/C=C/c1ccc(Br)cc1)c1cc2ccc(Br)cc2oc1=O

The remaining lines, values behind:

Structure (SMILES): O=C1CNC(=S)N1C(=O)c1cc([N+](=O)[O-])cc([N+](=O)[O-])c1
Ki [1]: 156 µM
IC50 [2]: 50 µM
Ki [3]: 34 µM

Structure (SMILES): Cc1nn(-c2ccc(Nc3cccc(Cl)c3)nn2)c(C)c1[N+](=O)[O-]
IC50 [8]: 19.3 µM
Ratio IC50 [9]: 1.98

Structure (SMILES): Cn1cc(-c2nnc(-c3ccc(C(c4cn(Cl)c5ccccc45)c4cn(Cl)c5ccccc45)cc3)o2)c2ccccc21
Ratio IC50 [12]: 400
IC50 [13]: 2 µM

Structure (SMILES): C(=N\Nc1nc(-c2ccc(-c3ccccc3)cc2)cs1)/c1cccc2ccccc12
IC50 [15]: 6.2 µM

Structure (SMILES): CCOC(=O)c1c(C)n(C2CC2)c2ccc(OCc3nnc(-c4ccc(O)cc4)[nH]3)cc12
IC50 [16]: 30 µM

Structure (SMILES): O=C(NNS(=O)(=O)c1cc(Cl)c(Cl)cc1Cl)c1ccc2[nH]cc(C(c3ccccc3)c3c[nH]c4ccc(C(=O)NNS(=O)(=O)c5cc(Cl)c(Cl)cc5Cl)cc34)c2c1
Ratio IC50 [21]: 8500
IC50 [22]: 0.1 µM

Structure (SMILES): COc1cc(-c2[nH]c3ccccc3c2/C=N/NC(=S)Nc2ccccc2)cc(OC)c1OC
IC50 [30]: 27 µM
Ki [31]: 27 µM
